Experimental data from US20250221967A1, “COMPOSITIONS AND METHODS FOR THE TREATMENT OF CANCER AND OTHER PROLIFERATIVE DISEASES” (THE WISTAR INSTITUTE OF ANATOMY AND BIOLOGY, priority 2022, published 2025).
“Also recorded” adds a separate entry of the source.

Assays:
[1] = system: Nonhemopoietic cancer cells (ID8, PDAC); assay: Cell death in nonhemopoietic cancer cells; type: cell-based; conditions: listed as AP-3-84
Protocol: (§1) Additionally, the inventors obtained test results showing the compounds to be effective in models of AML. AML cell lines (THP-1, AML-193, Kasumi-1) were cultured at different cell concentration (75000/ml, 125,000/ml and 200,000/ml) and exposed to 5, 10, 15, 20 μM concentration of AP-3-84. Cell differentiation was induced by 100 ng/ml PMA over 24 hours. Nonhemopoietic cancer cells (ID8, PDAC) were analyzed after exposure to AP-3-84. Cell death outcomes were measured by Annexin-V using flowcytometry or viability measures by Alamar blue assay. Protein levels were measured by Western blots at intervals between 30 min and 6 hours after exposure to AP-3-84 for total Rb1, phosphorylated Rb1, ATF3, BIM, NOXA, BaK, Bax, cleaved PARP, cleaved Caspase-3. Cytoplasmic and mitochondrial lysates were examined. Confocal immunocytochemistry on Rb1 expression in nucleus versus cytoplasm was performed.

PDA T low cell line = assay: PDA T low tumor model (orthotopic or subcutaneous) in B6 wild-type mice; type: in vivo
Protocol: FIGS. 4A-C. AP-3-84 renders more resistant PDA tumors with low T cell infiltration into immunotherapy responsive tumors. […] Statistical analysis of the data was conducted using unpaired Student t-test criteria with additional false discovery rate adjustment for multiple comparisons for gene expression analysis.

PDA T high cell line [2] = assay: Orthotopic PDA T high tumor model in NSG immunodeficient mice; type: in vivo
Protocol: (§2) (FIGS. 2A-B) B6 wild-type mice were orthotopically injected with PDA T high cell line into the pancreas. T high PDA cell line was previously generated by Dr. Stanger's lab (Upenn), this tumor cell line can induce some T cell infiltration opposite to T low PDA cell line (shown in FIGS. 4A-C). Mice were treated with 7 daily AP-3-84 or vehicle starting from day 4. On day 22 pancreatic tumors were collected and compared across two groups. […] (FIG. 2C) B6 wild-type mice were injected subcutaneously with PDA T high tumor cells and treated with AP-3-84 or vehicle as in FIGS. 2A-B. Tumor growth was measured until day 31. […] (FIG. 2D) Same experiment as in FIGS. 2A-B was conducted in NSG immunodeficient mice.

PDA T high cell line [3] = assay: Orthotopic PDA T high pancreatic tumor model in B6 wild-type mice; type: in vivo; conditions: 7 daily treatments from day 4, tumors collected day 22, listed as AP-3-84
Protocol: as §2
Statistical analysis of the data was conducted using unpaired Student t-test criteria with additional false discovery rate adjustment for multiple comparisons for gene expression analysis.

PDA T high tumor cells = assay: Subcutaneous PDA T high tumor model in B6 wild-type mice; type: in vivo; conditions: measured until day 31
Protocol: as §2

[4] = system: PMA differentiated THP1 cells; assay: Cell death in PMA differentiated THP-1 cells; type: cell-based; conditions: PMA treated THP-1 cells; listed as AP-3-84
Protocol: as §1

Rb protein = biological target: T1, Rb protein (Homo sapiens, UniProt P06400); assay: Iodoacetamide capping of Cys residues of compound-treated Rb protein, MALDI-MS; conditions: for # of CH2CONH2: RB + compound + Iodoacetamide, RB + DMSO control gives 8; for Cys residues masked from reacting with the iodoacetamide: Rb protein treated with compound, then iodoacetamide
T1 sequence (P06400 380-785 limits assumed): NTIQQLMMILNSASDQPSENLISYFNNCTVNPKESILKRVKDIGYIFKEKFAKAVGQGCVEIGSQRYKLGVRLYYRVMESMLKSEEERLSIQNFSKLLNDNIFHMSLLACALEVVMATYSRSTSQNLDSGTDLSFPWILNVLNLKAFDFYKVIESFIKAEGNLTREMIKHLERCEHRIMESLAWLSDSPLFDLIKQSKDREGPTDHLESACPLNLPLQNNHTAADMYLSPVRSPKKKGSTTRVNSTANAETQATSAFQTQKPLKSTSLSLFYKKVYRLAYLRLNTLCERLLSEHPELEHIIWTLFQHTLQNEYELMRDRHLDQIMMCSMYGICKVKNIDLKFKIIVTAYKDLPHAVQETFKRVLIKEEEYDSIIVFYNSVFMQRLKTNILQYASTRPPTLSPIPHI
Protocol: Further studies were conducted to evaluate the binding of the compounds to the Rb protein. Using MS, the […] that had been treated with excess amounts of the compounds were then capped with iodoacetamide. […] Furthermore, there was a significant reduction in MS/MS sequencing events. […] One explanation is that the compound activates Cys706 for nucleophilic attack from Cys712.
In order to confirm that, the Rb protein was treated with iodoacetamide to cap the Cys residues. The predicted chart is shown below.

[5] = system: thioglycolate-induced macrophages; assay: Macrophage viability by Annexin V/DAPI staining; type: cell-based; conditions: different concentrations, 16 hours, listed as AP-3-84
Protocol: (§3) FIGS. 1A-B. Novel Rb1 modulator AP-3-84 induces cell death specifically in macrophages. (FIG. 1A) Tumor PDAC cells and thioglycolate-induced macrophages were cultured with different concentrations of AP-3-84 Rb1 modulator for 16 hours with the following assessment of viability by Annexin V/DAPI staining. […] (FIG. 1B) Thioglycollate-induced macrophages were cultured with 10 uM AP-3-84 for 4 hours and gene expression changes were studied by RNA-Seq.

[6] = biological target: T2, HDAC1 binding Rb-NT (380-785) (Homo sapiens, UniProt P06400); assay: Inhibition of HDAC1 binding to Rb-NT (380-785); conditions: for Inhibition of HDAC1 binding Rb-NT (380-785) Top: top of inhibition curve
T2 construct: Rb-NT (380-785)
T2 sequence (P06400 380-785): T1 sequence (P06400 380-785 limits assumed)
Protocol: Additionally, the binding of different proteins was evaluated. The binding of E7, E2F1, MDM2, and HDAC1 were evaluated to Rb fragments. The compounds tested herein where shown inhibit HDAC1 binding to the Rb fragments in the LxCxE binding pocket.

[7] = system: Thioglycollate-induced macrophages; assay: Gene expression changes by RNA-Seq; type: cell-based; conditions: 10 uM, 4 hours, listed as AP-3-84
Protocol: as §3

[8] = system: AML cell lines (THP-1, AML-193, Kasumi-1); assay: Cell death in AML cell lines (Annexin-V flow cytometry, Alamar blue); type: cell-based
Protocol: as §1

Tumor PDAC cells = assay: Tumor cell viability by Annexin V/DAPI staining; type: cell-based; conditions: different concentrations, 16 hours, listed as AP-3-84
Protocol: as §3

THP-1 cell line = assay: Western blots of ER stress and apoptosis proteins; type: cell-based; conditions: Western blot, listed as AP-3-84
Protocol: as §1

[9] = system: nonhemopoitic cancer cells; assay: Cell proliferation by CFSE dye dilution; type: cell-based; conditions: nonhemopoietic cancer cells
Excerpt: FIG. 22A-22C. […] A. Graphs indicates the total percentage of cell death (annexin V+ and AnnexinV+Live-Dead+ cells) in PMA treated THP-1 cells. […] C. Histogram indicates cell proliferation, measured by CSFE dye dilution in presence of AP-3-84 and other inhibitors. Bar diagram indicates average MFI of CFSE dye in presence of different inhibitors.

[10] = system: tumor-associated macrophages; assay: Flow cytometry of immune cells in orthotopic PDA T high model; type: in vivo, mice
Protocol: FIGS. 3A-B. AP-3-84 depletes tumor macrophages and re-shapes immune cell landscape. (FIGS. 3A-B) B6 wild-type mice were orthotopically injected with PDA T high cell line into the pancreas and treated with AP-3-84 or vehicle as in FIGS. 2A-D. Tumor cells on day 12 (FIG. 3A) or peritoneum cells on day 21 (FIG. 3B) were analyzed by flow cytometry. […] Significant effects on activation and differentiation of immune cells in tumor and periphery were also found (not shown).

Rb-NT (380-785) = biological target: T3, Rb-NT (380-785) (Homo sapiens, UniProt P06400); assay: Inhibition of AP-8-239 binding to Rb-NT (380-785); conditions: for Inhibition of AP-8-239 binding Rb-NT (380-785) Top: top of inhibition curve
T3 construct: Rb-NT (380-785)
T3 sequence (P06400 380-785): T1 sequence (P06400 380-785 limits assumed)

Structure (SMILES): COc1cccc(-n2sc(=O)n(C)c2=O)c1 [AP-03-084]
- cell death [1]: no cell death was induced; also recorded: does not induce cell death in ID8 cells
- tumor growth, AP-3-84 treatment alone (PDA T low cell line; orthotopic and subcutaneous models): didn't dramatically affect the tumor growth
- tumor growth, combined with Immunotherapy (PDA T low cell line; with anti-PD1/anti-CTLA4/anti-CD40, listed as AP-3-84): decrease tumor burden in T-low-PDA model; also recorded: effectively reduced the tumor growth compared to monotherapies
- tumor growth (PDA T high cell line [2]): No effect of AP-3-84 treatment was observed
- pancreatic tumor growth (PDA T high cell line [3]): significant reduction of tumor growth; also recorded: significantly reduced the tumor growth in mice
- tumor growth (PDA T high tumor cells): Significant reduction of tumor growth
- cell death [4]: no cell death was induced; also recorded: minor effect on PMA treated THP-1 cells
- # of CH2CONH2 (Rb protein): 2
- Cys residues masked from reacting with the iodoacetamide (Rb protein): 6
- macrophage cell death [5]: can induce cell death of TAMs and thioglycolate-induced macrophages; also recorded: induced macrophage cell death in dose-dependent manner
- IC50 [6]: 89 nM
- Inhibition of HDAC1 binding Rb-NT (380-785) Top [6]: 75%
- gene expression changes [7]: induction of oxidative and ER stress programs with a clear activation of p53-dependent genes and caspases; also recorded: induced strong unfolded protein and oxidative stress response with the induction of apoptosis pathway and p53 signaling
- cells undergoing cell death ([8]; 5 minute exposure, 24 hours later): 70-80%
- concentration at which induction of cell death was observed ([8]; AML cells, tested at 5, 10, 15, 20 μM): ≥ 10 µM
- cell death in AML cell lines ([8]; THP-1, AML-193, Kasumi-1, annexin V+ and AnnexinV+Live-Dead+ cells): induced cell death in different AML cell lines
- PDA tumor cell viability / death of other cell types (Tumor PDAC cells): not of the other cell types (neither tumor nor T cells); also recorded: didn't affect PDA tumor cell viability
- apoptosis proteins (NOXA, BIM, cleaved-PARP, cleaved Caspase-3) (THP-1 cell line; 10 uM in FIG. 23A): increased mitochondrial protein levels of NOXA, BIM, cleaved-PARP, and cleaved Caspase-3; also recorded: induction of Cleaved-PARP, Noxa and Cleaved-caspase 3
- Bax, Bak, Bcl-2, Bcl-xl levels (THP-1 cell line): Bax and Bak levels were unchanged; also recorded: Bax Bcl-2 and Bcl-xl does not get altered
- ER-stress signals (ATF4, ATF3, peIF2a) (THP-1 cell line): induced higher levels of ER-stress signals (higher ATF4, ATF3); also recorded: Induction of ATF4, ATF3 and peIF2a
- cell division rate [9]: No effect in cell division rate
- immune cell composition in the peritoneum ([10]; peritoneum cells on day 21, flow cytometry): re-shapes the immune cell composition in the peritoneum
- tumor-associated macrophages in tumors ([10]; tumor cells on day 12, flow cytometry, listed as AP-3-84): depleting macrophages and inducing T cell infiltration; also recorded: effectively depletes tumor-associated macrophages in tumors
- IC50 (Rb-NT (380-785)): 445 nM
- Inhibition of AP-8-239 binding Rb-NT (380-785) Top (Rb-NT (380-785)): 90.1%

Structure (SMILES): Cn1c(=O)sn(-c2cccc(OCCCNC(=O)c3ccccc3)c2)c1=O [AP-08-238]
- IC50 [6]: 83 nM
- Inhibition of HDAC1 binding Rb-NT (380-785) Top [6]: 71%
- IC50 (Rb-NT (380-785)): 54 nM
- Inhibition of AP-8-239 binding Rb-NT (380-785) Top (Rb-NT (380-785)): 90.6%

Structure (SMILES): Cn1c(=O)sn(-c2cccc(OCCCN)c2)c1=O [AP-08-231]
- IC50 [6]: 77 nM
- Inhibition of HDAC1 binding Rb-NT (380-785) Top [6]: 72%
- IC50 (Rb-NT (380-785)): 362 nM
- Inhibition of AP-8-239 binding Rb-NT (380-785) Top (Rb-NT (380-785)): 83.3%

Structure (SMILES): Cn1c(=O)sn(-c2cccc(OCCCNC(=O)CC[C@@H](NC(=O)c3ccc(NCCc4cc5c(=O)[nH]c(N)nc5[nH]4)cc3)C(=O)O)c2)c1=O [AP-08-237]
- IC50 [6]: 171 nM
- Inhibition of HDAC1 binding Rb-NT (380-785) Top [6]: 72%
- IC50 (Rb-NT (380-785)): 22 nM
- Inhibition of AP-8-239 binding Rb-NT (380-785) Top (Rb-NT (380-785)): 85.9%

Structure (SMILES): C=CC(=O)N(C)C(=O)Nc1cccc(OC)c1 [SA-01-048]
- IC50 [6]: 12700 nM
- Inhibition of HDAC1 binding Rb-NT (380-785) Top [6]: 69%
- IC50 (Rb-NT (380-785)): 2920 nM
- Inhibition of AP-8-239 binding Rb-NT (380-785) Top (Rb-NT (380-785)): 83.8%

Structure (SMILES): O=c1sn(-c2cccc3ccccc23)c(=O)n1Cc1ccccc1 [Tideglusib, reference compound]
- IC50 [6]: 40 nM
- Inhibition of HDAC1 binding Rb-NT (380-785) Top [6]: 77%
- IC50 (Rb-NT (380-785)): 126 nM
- Inhibition of AP-8-239 binding Rb-NT (380-785) Top (Rb-NT (380-785)): 86.9%

Structure (SMILES): Cn1c(=O)sn(-c2cccc(OCCCNC(=S)Nc3ccc4c(c3)C(=O)OC43c4ccc(O)cc4Oc4cc(O)ccc43)c2)c1=O [AP-08-239]
- # of CH2CONH2 (Rb protein): 6
- Cys residues masked from reacting with the iodoacetamide (Rb protein): 2
